Test results as given in patent US20220380338A1, “CYCLOALKYL 3-OXOPIPERAZINE CARBOXAMIDES AND CYCLOHETEROALKYL 3-OXOPIPERAZINE CARBOXAMIDES AS NAV1.8 INHIBITORS” (Merck Sharp & Dohme LLC, priority 2021, published 2022).

Molecular target: T1, human NaV1.8 (Homo sapiens, UniProt Q9Y5Y9)
T1 construct: expressed in transfected cells
Assay: Nav1.8 Qube® Assay (automated 384-well patch-clamp, inhibition of sodium current)
Format: cell-based
Settings: human NaV1.8 channels stably expressed in HEK 293 cells, room temperature
Experimental: Compounds were tested on human NaV1.8 and NaV1.5 channels stably expressed in human embryo kidney (HEK) 293 cells. Sodium current measurements on Qube® were conducted as follows: automated 384-well patch-clamp assays on the Qube® platform (Sophion Biosciences) were used to measure the inhibition of sodium flow through human NaV1.8 and NaV1.5 channels. Whole-cell voltage-clamp recordings were performed in QChips® (Sophion Biosciences) at room temperature. NaV1.8 current measurements on Qube® were obtained as follows: NaV1.8 currents were elicited with a 10 second 1 Hertz (Hz) pulse train from a holding potential of −90 millivolts (mV), delivered to the cells once per minute in the control condition (DMSO only) and after compound addition. The 1 hertz pulse train stimulation consisted of ten test pulses to 10 millivolt (mV) for 20 milliseconds (ms), each of which was followed by a 980 millisecond repolarization to −67 millivolts. At the end of the 10 second pulse train stimulation, a 5 second hyperpolarization step to −100 millivolt (mV) was used to recover NaV1.8 from fast inactivation. The peak currents elicited by the 1st and 10th test pulses were used to determine IC50 values for resting inhibition and inactivated state inhibition. NaV1.5 current measurements on Qube® were obtained as follows: NaV1.5 currents were elicited with a 20 second 3 Hertz pulse train in the control condition (DMSO only) and after compound addition. The pulse train consisted of sixty 20 millisecond test pulses to 0 millivolt from a holding potential of −80 millivolt (mV). The average peak currents elicited by the last 3 test pulses were used to determine IC50 values for NaV1.5 inhibition.
The following buffers were used for the Qube® recordings: External buffer for NaV1.8 Qube® recording: 150 NaCl, 2 CaCl2, 5 KCl, 1 Mg Cl2, 10 HEPES, 12 Dextrose; External buffer for Qube® NaV1.5 recording: 120 N-Methyl-D-Glucamine, 40 NaCl, 1 KCl, 2.7 CaCl2, 5 HEPES, 0.5 MgCl2; and Internal buffer for Qube® recording: 120 CsF, 30 CsCl, 10 EGTA, 5 HEPES, 5 NaF, 2 MgCl2.
For all Qube® experiments offline analysis was used to determine percent inhibition as a function of drug concentration. IC50 values were determined by fitting to the Hill equation.

T1 sequence (Q9Y5Y9 whole entry): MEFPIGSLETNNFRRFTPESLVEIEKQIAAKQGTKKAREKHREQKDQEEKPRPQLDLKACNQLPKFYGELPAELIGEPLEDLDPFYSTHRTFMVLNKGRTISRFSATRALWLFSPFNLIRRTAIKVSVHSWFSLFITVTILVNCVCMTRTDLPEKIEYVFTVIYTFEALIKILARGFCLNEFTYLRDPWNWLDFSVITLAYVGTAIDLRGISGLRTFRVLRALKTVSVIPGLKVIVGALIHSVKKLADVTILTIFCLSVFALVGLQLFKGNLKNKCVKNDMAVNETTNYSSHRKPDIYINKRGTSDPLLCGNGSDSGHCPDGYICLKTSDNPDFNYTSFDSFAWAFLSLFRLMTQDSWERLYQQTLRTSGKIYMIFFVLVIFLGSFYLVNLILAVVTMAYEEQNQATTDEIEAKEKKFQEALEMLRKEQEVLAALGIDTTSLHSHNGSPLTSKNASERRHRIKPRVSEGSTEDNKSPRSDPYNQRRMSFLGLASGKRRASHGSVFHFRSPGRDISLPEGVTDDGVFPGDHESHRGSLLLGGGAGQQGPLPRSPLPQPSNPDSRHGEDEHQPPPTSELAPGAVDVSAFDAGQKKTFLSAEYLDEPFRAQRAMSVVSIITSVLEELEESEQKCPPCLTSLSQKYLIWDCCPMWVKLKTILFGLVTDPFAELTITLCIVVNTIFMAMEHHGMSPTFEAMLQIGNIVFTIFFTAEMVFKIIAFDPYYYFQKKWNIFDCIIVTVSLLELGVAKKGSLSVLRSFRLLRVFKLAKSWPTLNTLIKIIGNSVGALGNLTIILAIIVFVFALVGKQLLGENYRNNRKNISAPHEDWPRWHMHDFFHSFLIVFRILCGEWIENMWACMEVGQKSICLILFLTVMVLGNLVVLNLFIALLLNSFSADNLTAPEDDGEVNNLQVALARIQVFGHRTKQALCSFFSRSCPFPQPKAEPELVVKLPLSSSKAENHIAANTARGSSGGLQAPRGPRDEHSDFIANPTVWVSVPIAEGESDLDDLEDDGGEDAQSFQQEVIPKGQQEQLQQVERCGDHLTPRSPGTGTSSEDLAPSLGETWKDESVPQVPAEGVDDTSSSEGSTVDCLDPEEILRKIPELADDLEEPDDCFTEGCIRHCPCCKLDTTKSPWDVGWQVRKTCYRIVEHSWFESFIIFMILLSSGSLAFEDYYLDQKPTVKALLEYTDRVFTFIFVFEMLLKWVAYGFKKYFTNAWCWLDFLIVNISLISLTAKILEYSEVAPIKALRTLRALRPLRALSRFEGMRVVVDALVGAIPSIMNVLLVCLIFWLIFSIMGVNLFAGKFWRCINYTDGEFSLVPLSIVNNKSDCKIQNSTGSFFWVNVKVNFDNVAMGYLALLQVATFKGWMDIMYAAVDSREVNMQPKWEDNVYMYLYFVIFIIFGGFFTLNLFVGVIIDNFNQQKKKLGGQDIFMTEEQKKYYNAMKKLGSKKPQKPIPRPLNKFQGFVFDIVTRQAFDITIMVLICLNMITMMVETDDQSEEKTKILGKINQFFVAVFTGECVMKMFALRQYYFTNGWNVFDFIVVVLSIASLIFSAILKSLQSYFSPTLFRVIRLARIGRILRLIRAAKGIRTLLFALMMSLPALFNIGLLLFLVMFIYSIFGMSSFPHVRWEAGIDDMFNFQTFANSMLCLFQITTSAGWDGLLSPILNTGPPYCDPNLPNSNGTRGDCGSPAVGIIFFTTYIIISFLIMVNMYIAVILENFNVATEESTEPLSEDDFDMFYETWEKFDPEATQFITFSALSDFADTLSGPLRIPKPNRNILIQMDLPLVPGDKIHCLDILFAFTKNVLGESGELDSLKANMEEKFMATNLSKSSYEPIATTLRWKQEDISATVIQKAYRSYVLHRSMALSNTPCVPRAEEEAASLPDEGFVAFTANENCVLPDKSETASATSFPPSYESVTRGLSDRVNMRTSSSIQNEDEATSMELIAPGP

SMILES | IC50 [nM]
C[C@@H]1C(=O)NCCN1C(=O)NC(c1ccc(F)c(Cl)c1F)[C@H]1CC[C@H](C(F)(F)F)CC1 (single isomer, unassigned) [Example 9A, (2R)-N-((R or S)-(3-chloro-2,4-difluoro-phenyl)(trans-4-(trifluoromethyl)cyclo-hexyl)methyl)-2-methyl-3-oxo-piperazine-1-carboxamide] | 46.8
C[C@@H]1C(=O)NCCN1C(=O)NC(c1ccc(F)c(Cl)c1F)[C@H]1CC[C@H](C(F)(F)F)CC1 (single isomer, unassigned) [Example 9B, (2R)-N-((S or R)-(3-chloro-2,4-difluoro-phenyl)(trans-4-(trifluoromethyl)cyclo-hexyl)methyl)-2-methyl-3-oxo-piperazine-1-carboxamide] | 0.8
O=C1CN(C(=O)NC(c2ccc(F)c(Cl)c2F)[C@H]2CC[C@H](C(F)(F)F)CC2)CCN1 (single isomer, unassigned) [Example 10A, N-((R or S)-(3-chloro-2,4-difluoro-phenyl)(trans-4-(trifluoromethyl)cyclo-hexyl)methyl)-3-oxopiperazine-1-carboxamide] | 311
O=C1CN(C(=O)NC(c2ccc(F)c(Cl)c2F)[C@H]2CC[C@H](C(F)(F)F)CC2)CCN1 (single isomer, unassigned) [Example 10B, N-((S or R)-(3-chloro-2,4-di-fluorophenyl)(trans-4-(trifluoromethyl)-cyclohexyl)methyl)-3-oxopiperazine-1-carboxamide] | 3.87

Further lines, results first:

IC50 [nM] | SMILES
112 | C[C@@H]1C(=O)NCCN1C(=O)NC(c1ccc(F)c(Cl)c1)[C@@H]1C[C@@H]2[C@H](C1)C2(F)F (single isomer, unassigned) [Example 7A, (2R)-N-((R or S)-(3-chloro-4-fluoro-phenyl)((1R,3s,5S)-6,6-difluoro-bicyclo[3.1.0]hexan-3-yl)methyl)-2-methyl-3-oxo-piperazine-1-carboxamide]
11.7 | C[C@@H]1C(=O)NCCN1C(=O)NC(c1ccc(F)c(Cl)c1)[C@@H]1C[C@@H]2[C@H](C1)C2(F)F (single isomer, unassigned) [Example 7B, (2R)-N-((S or R)-(3-chloro-4-fluoro-phenyl)((1R,3s,5S)-6,6-difluoro-bicyclo[3.1.0]hexan-3-yl)methyl)-2-methyl-3-oxo-piperazine-1-carboxamide]
244 | C[C@@H]1C(=O)NCCN1C(=O)NC(c1ccc(F)c(F)c1)[C@H]1CC[C@H](C(F)(F)F)CC1 (single isomer, unassigned) [Example 8A, (2R)-N-((R or S)-(3,4-difluoro-phenyl)(trans-4-(trifluoromethyl)cyclo-hexyl)methyl)-2-methyl-3-oxo-piperazine-1-carboxamide]
13.2 | C[C@@H]1C(=O)NCCN1C(=O)NC(c1ccc(F)c(F)c1)[C@H]1CC[C@H](C(F)(F)F)CC1 (single isomer, unassigned) [Example 8B, (2R)-N-((S or R)-(3,4-difluoro-phenyl)(trans-4-(trifluoromethyl)cyclo-hexyl)methyl)-2-methyl-3-oxo-piperazine-1-carboxamide]
870 | C[C@@H]1C(=O)NCCN1C(=O)NC(c1ccc(F)c(Cl)c1F)[C@@H]1C[C@@H]2[C@H](C1)C2(F)F (single isomer, unassigned) [Example 11A, (R)-N-((R or S)-(3-chloro-2,4-difluoro-phenyl)((1R,3s,5S)-6,6-difluoro-bicyclo[3.1.0]hexan-3-yl)methyl)-2-methyl-3-oxo-piperazine-1-carboxamide]
4.14 | C[C@@H]1C(=O)NCCN1C(=O)NC(c1ccc(F)c(Cl)c1F)[C@@H]1C[C@@H]2[C@H](C1)C2(F)F (single isomer, unassigned) [Example 11B, (R)-N-((S or R)-(3-chloro-2,4-difluoro-phenyl)((1R,3s,5S)-6,6-difluoro-bicyclo[3.1.0]hexan-3-yl)methyl)-2-methyl-3-oxo-piperazine-1-carboxamide]
